These results are taken from US20250381157A1, “ANTIMICROBIAL COMPOUNDS” (priority 2022, published 2025).

Usually IC50 stands for the concentration needed to halve the response being measured.

The target of one experiment is T1, recombinant human HDAC6 (Homo sapiens, UniProt Q9UBN7).
T1 construct: purchased BPS 50006
T1 sequence (Q9UBN7 1-1215): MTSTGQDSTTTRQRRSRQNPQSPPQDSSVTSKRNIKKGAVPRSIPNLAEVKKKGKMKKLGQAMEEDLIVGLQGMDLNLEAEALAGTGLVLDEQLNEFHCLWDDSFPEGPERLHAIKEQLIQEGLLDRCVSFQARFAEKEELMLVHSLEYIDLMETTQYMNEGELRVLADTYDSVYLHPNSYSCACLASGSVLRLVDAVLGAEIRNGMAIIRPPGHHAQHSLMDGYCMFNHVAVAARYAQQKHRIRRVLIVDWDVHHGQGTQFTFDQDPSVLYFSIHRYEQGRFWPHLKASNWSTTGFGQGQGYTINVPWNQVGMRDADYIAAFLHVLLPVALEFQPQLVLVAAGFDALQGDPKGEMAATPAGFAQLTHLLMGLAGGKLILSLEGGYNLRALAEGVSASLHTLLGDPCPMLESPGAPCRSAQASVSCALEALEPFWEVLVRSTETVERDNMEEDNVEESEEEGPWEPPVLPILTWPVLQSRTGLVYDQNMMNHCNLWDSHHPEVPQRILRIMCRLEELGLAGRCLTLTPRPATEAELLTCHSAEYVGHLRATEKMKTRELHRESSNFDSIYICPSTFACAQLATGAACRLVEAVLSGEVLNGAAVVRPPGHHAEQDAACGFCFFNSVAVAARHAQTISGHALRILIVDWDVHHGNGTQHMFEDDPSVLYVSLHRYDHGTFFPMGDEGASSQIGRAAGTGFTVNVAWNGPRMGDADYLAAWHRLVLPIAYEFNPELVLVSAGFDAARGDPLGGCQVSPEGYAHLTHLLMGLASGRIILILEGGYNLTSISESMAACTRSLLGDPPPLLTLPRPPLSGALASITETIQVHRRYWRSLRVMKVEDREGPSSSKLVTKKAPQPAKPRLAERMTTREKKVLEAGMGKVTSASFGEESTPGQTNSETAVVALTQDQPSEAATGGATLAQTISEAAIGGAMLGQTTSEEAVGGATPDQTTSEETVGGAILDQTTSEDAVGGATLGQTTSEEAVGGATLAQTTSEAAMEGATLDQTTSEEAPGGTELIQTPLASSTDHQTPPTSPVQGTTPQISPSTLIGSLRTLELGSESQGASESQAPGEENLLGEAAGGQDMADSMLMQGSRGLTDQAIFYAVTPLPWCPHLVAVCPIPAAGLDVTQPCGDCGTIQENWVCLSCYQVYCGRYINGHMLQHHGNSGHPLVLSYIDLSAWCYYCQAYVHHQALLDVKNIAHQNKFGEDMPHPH
The experiment in a line: HDAC6 in-vitro enzymatic assay. Type of experiment: biochemical. Here is the method: The purpose of the study is to determine the effects of Compound 1 on the enzymatic activities of recombinant human HDAC1, HDAC2, HDAC3, HDAC4, HDAC5, HDAC6, HDAC7, HDAC8, and HDAC9 using in-vitro enzymatic assays.
All of the compounds were dissolved in DMSO. A series of dilutions of the compounds were prepared with 10% DMSO in HDAC assay buffer and 5 μl of the dilution was added to a 50 μl reaction so that the final concentration of DMSO was 1% in all of reactions. The compounds were pre-incubated in duplicate at RT for 30 minutes in a mixture containing HDAC assay buffer, 5 μg BSA, HDAC enzyme and a test compound. After 30 minutes, the enzymatic reactions were initiated by the addition of HDAC substrate to a final concentration of 20 μM or 2 μM. The enzymatic reaction proceeded for 30 minutes at 37° C. […] Fluorescence intensity was measured at an excitation of 360 nm and an emission of 460 nm using a Tecan Infinite M1000 microplate reader.
(§1) HDAC activity assays were performed in duplicates at each concentration. The fluorescent intensity data were analyzed using the computer software, Graphpad Prism. […] The percent activity in the presence of each compound was calculated according to the following equation: % activity=(F−Fb)/(Ft−Fb), where F=the fluorescent intensity in the presence of the compound. […] The IC50 value was determined by the concentration causing a half-maximal percent activity.

The target in the next experiment is T2, recombinant human HDAC7 (Homo sapiens, UniProt Q8WUI4).
T2 construct: purchased BPS 50007
T2 sequence (Q8WUI4 1-952): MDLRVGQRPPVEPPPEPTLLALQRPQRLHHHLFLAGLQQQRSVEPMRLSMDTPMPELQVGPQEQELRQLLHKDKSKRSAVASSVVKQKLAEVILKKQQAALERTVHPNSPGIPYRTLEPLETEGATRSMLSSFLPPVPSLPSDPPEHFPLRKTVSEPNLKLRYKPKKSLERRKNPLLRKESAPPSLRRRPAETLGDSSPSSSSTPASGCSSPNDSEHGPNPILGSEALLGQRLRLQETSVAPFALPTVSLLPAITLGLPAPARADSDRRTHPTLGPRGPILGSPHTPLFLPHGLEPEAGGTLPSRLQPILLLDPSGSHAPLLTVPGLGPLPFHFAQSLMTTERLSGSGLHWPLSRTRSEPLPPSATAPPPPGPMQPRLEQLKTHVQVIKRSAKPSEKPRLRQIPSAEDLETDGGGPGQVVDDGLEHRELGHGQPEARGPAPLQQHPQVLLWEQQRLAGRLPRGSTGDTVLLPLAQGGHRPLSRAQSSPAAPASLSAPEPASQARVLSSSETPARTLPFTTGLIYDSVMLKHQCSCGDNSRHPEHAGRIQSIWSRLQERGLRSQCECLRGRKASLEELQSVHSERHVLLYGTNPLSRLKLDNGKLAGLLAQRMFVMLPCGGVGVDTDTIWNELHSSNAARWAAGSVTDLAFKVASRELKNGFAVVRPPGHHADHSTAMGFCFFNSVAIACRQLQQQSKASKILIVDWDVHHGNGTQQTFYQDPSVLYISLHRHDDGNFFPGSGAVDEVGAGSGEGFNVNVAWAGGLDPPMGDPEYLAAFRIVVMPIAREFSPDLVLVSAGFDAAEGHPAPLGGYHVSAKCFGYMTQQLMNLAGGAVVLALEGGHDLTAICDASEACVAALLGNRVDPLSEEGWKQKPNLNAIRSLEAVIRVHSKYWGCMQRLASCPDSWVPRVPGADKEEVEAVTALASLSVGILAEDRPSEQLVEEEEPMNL
The experiment in a line: HDAC7 in-vitro enzymatic assay. Type of experiment: biochemical. The protocol:
All of the compounds were dissolved in DMSO. A series of dilutions of the compounds were prepared with 10% DMSO in HDAC assay buffer and 5 μl of the dilution was added to a 50 μl reaction so that the final concentration of DMSO was 1% in all of reactions. The compounds were pre-incubated in duplicate at RT for 30 minutes in a mixture containing HDAC assay buffer, 5 μg BSA, HDAC enzyme and a test compound. After 30 minutes, the enzymatic reactions were initiated by the addition of HDAC substrate to a final concentration of 20 μM or 2 μM. The enzymatic reaction proceeded for 30 minutes at 37° C. After enzymatic reactions, 50 μl of 2×HDAC Developer was added to each well for the HDAC enzymes and the plate was incubated at room temperature for an additional 15 minutes. Fluorescence intensity was measured at an excitation of 360 nm and an emission of 460 nm using a Tecan Infinite M1000 microplate reader.
as §1

Where only a bound is given, the exact number is not on record here.

In the case of `C#CCOCC(=O)Nc1ccc(C(=O)Nc2ccccc2N)cc1` [Compound 1, N-(2-aminophenyl)-4-{2-[(prop-2-yn-1-yl)oxy]acetamido}benzamide], the IC50 on recombinant human HDAC6 and on recombinant human HDAC7 was > 200 µM in each case. Besides, the “Inhib. HDAC6” value at recombinant human HDAC6 (@ 200 μM) is listed as “No Inhib. @ 200 μM”. Besides, the “Inhib. HDAC7” value at recombinant human HDAC7 (@ 200 μM) was “No Inhib. @ 200 μM”.
